Laboratory results from patent publication US12590103B2, “Polymorph of EP4 receptor antagonist, preparation method therefor and use thereof” (SHANGHAI YUYAO BIOTECH LTD., priority 2020, dated 2026).

Tests used:
Format in all cases: physicochemical
[1] = XRPD characterization after heating (thermal crystal transformation)
Experimental: (§1) The solid samples obtained from the experiment were analyzed by D8 advance powder X-ray diffraction analyzer (Bruker). The instrument is equipped with a LynxEye detector, and the ray species is Cu Kα (λ=1.54184 Å). The 2θ scanning range of the sample is from 3° to 40°, and the scanning step is 0.02°. When measuring the sample, the light tube voltage and light tube current were 40 KV and 40 mA respectively.

[2] = Dynamic water vapor adsorption (DVS)
Experimental: The instrument model used for dynamic moisture absorption and desorption analysis is IGA Sorp(Hidentity Isochema). The sample measurement adopts gradient mode, the relative humidity range of the test is 0% to 90%, and the humidity increment of each gradient is 10%. The specific parameters are as follows: • Sample temperature: 25° C. • Temperature stability: 0.1° C./min • Flow rate: 250 mL/min • Scan: 2 • Model: F1 • Minimum time: 30 min • Maximum time: 120 min • Waiting cap: 98% • Start: Adsorption Scan • Adsorption humidity (%):0, 10, 20, 30, 40, 50, 60, 70, 80, 90; • Desorption humidity (%):80, 70, 60, 50, 40, 30, 20, 10, 0.
The initial raw material of Compound I was slurried in acetone for 4 hours, filtered and the resulting solid was characterized by XRPD, PLM, TGA, DSC and DVS.

[3] = Stability determination at 25° C./92.5% RH (XRPD); settings: 25° C./92.5% RH for 9 days
Experimental: as §1

[4] = Suspension crystal transformation experiment of Polymorphic Form I and Polymorphic Form II; settings: concluded from suspension crystal transformation at RT and 50° C.
Experimental: Suspension crystal transformation experiments were carried out on Polymorph I and polymorph II at room temperature and 50° C. respectively (Table 13). The resulting solid was characterized by XRPD.

[5] = DSC heat treatment (heating-cooling-heating cycle) with XRPD; settings: RT to 260° C., to −30° C., to 300° C.
Experimental: The DSC heating-cooling-heating cycle was used to try to find a crystal form with a higher melting point.
During the cooling process, there is an obvious exothermic peak. The initial temperature of the exothermic peak is 206.8° C., which should be caused by crystal transformation. XRPD characterization was performed on three different positions during DSC treatment.

[6] = Volatilization at room temperature, sample checked by 1H NMR; settings: volatilized at room temperature in THF, MeOH-THF and THF-water
Experimental: The structure of the solid sample and the solvent contained in the sample were confirmed by ^1H NMR. The instrument used for ^1H NMR analysis is Bruker Advance 300 equipped with B-ACS 120 automatic sampling system.
Single solvent volatilization: an appropriate amount of initial raw materials of compound I was dissolved in the solvents shown in 1-6 in Table 8 to prepare a solution with a concentration of 8 to 20 mg/mL. The obtained solution was filtered, the filtrate was volatilized at room temperature, and the obtained solid was characterized by XRPD.
Binary solvent volatilization: an appropriate amount of initial raw materials of compound I was dissolved in the solvents shown in 7-25 of Table 8 to prepare a solution with a concentration of 10 mg/mL. After filtration, the resulting filtrate was then mixed with solvent −2; then volatilized at room temperature. A total of 19 solvent systems were used to carry out the volatilization experiment of binary solvent, and the obtained solid was characterized by XRPD.

For `C[C@H](NC(=O)c1c(Cc2ccc(F)cc2)sc2c1CCOC2)c1ccc(C(=O)O)cc1` [polymorphic Form III, (S)-4-(1-(2-(4-fluorobenzyl)-4,7-dihydro-5H-thieno [2,3-c]pyran-3-carboxamido)ethyl) benzoic acid], which “crystal form by XRPD after heating” value ([1]; heated to 240° C.) is on record?
The value was “transformed into polymorphic Form I”.

With `C[C@H](NC(=O)c1c(Cc2ccc(F)cc2)sc2c1CCOC2)c1ccc(C(=O)O)cc1` [polymorphic Form VI, (S)-4-(1-(2-(4-fluorobenzyl)-4,7-dihydro-5H-thieno [2,3-c]pyran-3-carboxamido)ethyl) benzoic acid] as the molecule, how does the “crystal form by XRPD after heating” value ([1]; heated to about 236° C.) read?
Its value is “transformed into polymorphic Form I”.

With `C[C@H](NC(=O)c1c(Cc2ccc(F)cc2)sc2c1CCOC2)c1ccc(C(=O)O)cc1` [polymorphic Form II, (S)-4-(1-(2-(4-fluorobenzyl)-4,7-dihydro-5H-thieno [2,3-c]pyran-3-carboxamido)ethyl) benzoic acid] as the molecule, how does the “crystal form by XRPD after heating” value ([1]; heated to 200° C.) read?
Its value is “transformed into polymorphic Form I”.

For `C[C@H](NC(=O)c1c(Cc2ccc(F)cc2)sc2c1CCOC2)c1ccc(C(=O)O)cc1` [polymorphic Form IV, (S)-4-(1-(2-(4-fluorobenzyl)-4,7-dihydro-5H-thieno [2,3-c]pyran-3-carboxamido)ethyl) benzoic acid], which “crystal form by XRPD after heating” value ([1]; heated to 200° C.) is on record?
The value was “transformed into polymorphic Form I”.

For `C[C@H](NC(=O)c1c(Cc2ccc(F)cc2)sc2c1CCOC2)c1ccc(C(=O)O)cc1` [polymorphic Form V, (S)-4-(1-(2-(4-fluorobenzyl)-4,7-dihydro-5H-thieno [2,3-c]pyran-3-carboxamido)ethyl) benzoic acid], which “crystal form by XRPD after heating” value ([1]; heated to 200° C.) is on record?
Its value is “converted into the polymorphic Form I”.

Which results are given for `C[C@H](NC(=O)c1c(Cc2ccc(F)cc2)sc2c1CCOC2)c1ccc(C(=O)O)cc1` [polymorphic Form I, (S)-4-(1-(2-(4-fluorobenzyl)-4,7-dihydro-5H-thieno [2,3-c]pyran-3-carboxamido)ethyl) benzoic acid]?
polymorph of the sample before and after moisture absorption ([2]; DVS 0% to 90% RH): does not change; moisture absorbed (DVS) ([2]; at 80% RH, 25° C.): < 2%; crystal form by XRPD after storage in high humidity [3]: remain unchanged; thermodynamic stability of the crystal form [4]: thermodynamically stable crystal form; crystal form by XRPD at positions 1, 2 and 3 of the DSC treatment [5]: all polymorphic Form I

Which “chemical stability of the sample (1H NMR)” value [6] does the source give for `C[C@H](NC(=O)c1c(Cc2ccc(F)cc2)sc2c1CCOC2)c1ccc(C(=O)O)cc1` [compound I, (S)-4-(1-(2-(4-fluorobenzyl)-4,7-dihydro-5H-thieno [2,3-c]pyran-3-carboxamido)ethyl) benzoic acid] here?
Its value is “degraded”.
